Entries after “also recorded” stand apart in the source; their conditions may differ.
Columns and labels:
Type in all cases: in vivo, mouse
[1] = system: bleomycin-induced pulmonary fibrosis in C57BL/6 male mice; details: 20 days post bleomycin; vs vehicle or isotype control
[2] = system: hypoxia-induced pulmonary hypertension in C57BL/6 male mice; experiment: Treatment of hypoxia-induced pulmonary hypertension (dosing from Day 14 of hypoxia); details: dosing Days 14-21 of hypoxia; for Pulmonary Artery Cross-Sectional Area (PA CSA) / Right Ventricular Free Wall (RVFW) Thickening: 21st day; for Pulmonary Artery Cross-Sectional Area (PA CSA): FIG. 6; for Right Ventricular Free Wall (RVFW) Thickening: FIG. 7
Method: In this Example, the ability of anti-big-ET-1 antibody […] to treat hypoxia-induced pulmonary hypertension in mouse was evaluated. Experimental group animals were subjected to hypoxic conditions for 21 days (Day 1-21) and dosed with […], Bosentan, or control isotype antibody starting on Day 14. At Day 21, animals were evaluated using ultrasound images and measurements of ventricular pressures and cardiac hypertrophy (see Evaluation Materials and Methods in Example 7) and compared to control animals (maintained under normoxic conditions, hypoxia for 14 days, or hypoxia for 14 days followed by normoxia for 7 days). […] C57BL/6 male mice (10-11 weeks old) were weighed and treated or treated and dosed over a course of 21 days as outlined in Table 10. Bosentan was administered orally (PO); anti-big-ET-1 antibody […] and isotype control antibody were administered subcutaneously (SC). Body weights were consistent between groups over the course of this study. Bosentan, an orally active non-selective antagonist of endothelin receptor-A and -B, was used as a positive control while an irrelevant isotype-matched antibody served as the negative control. All procedures were approved by the Regeneron Institutional Animal Care and Use Committee (IACUC). Non-invasive ultrasound scanning was performed to determine pulmonary artery cross-sectional area (PA CSA), right ventricle cardiac output (RV CO) and right ventricular free wall thickness (RVFW) on the 21st day of hypoxia. Right ventricular diastolic and systolic pressures were acquired using a high-fidelity pressure catheter (Mikro-Tip®, Millar Instruments) in the right ventricle; in addition, right ventricular hypertrophy measurements (i.e., weight ratio of right ventricle-to-left ventricle+septum; Fulton Index) were measured at 21 days of hypoxia.

[3] = system: hypoxia-induced pulmonary hypertension in C57BL/6 male mice; experiment: Blocking/prevention of hypoxia-induced pulmonary hypertension (dosing prior to and during hypoxia); details: 18th day of hypoxia
Method: Ultrasound measurements were acquired using the following protocol. Mice were anesthetized, placed in a supine position on a heated platform (THM 100, Indus Instruments) and 2D imaging of the pulmonary infundibulum (B- and M-mode) was carried out using a Vevo 2100 ultrasound system (VisualSonics). Images were obtained from the parasternal short-axis view at the level of the aortic valve. Pulsed-wave Doppler measurements were obtained at the tip of the pulmonary valve leaflets once the scanhead was aligned for maximal laminar flow. In addition, M-mode recordings of the right ventricle were acquired at the short axis B-mode imaging plane to obtain right ventricular free-wall dynamics through the cardiac cycle.
Ultrasound data analysis, performed in a blinded manner, analyzed the following parameters: Diastolic and systolic right ventricular free-wall thickness (RVFW, short axis M-mode), pulmonary artery diameter at end-systole (short axis B-mode), and pulmonary artery flow (PA flow, PW Doppler). From these measurements, time-velocity integral of pulmonary flow, pulmonary artery cross-sectional area (PA CSA), and right ventricle cardiac output (RV CO) were calculated. Means and standard errors of the mean were calculated for measurements at each time point, for each treatment group. All measurements were averaged on 3 cardiac cycles. Right ventricular pressures at 21 days of hypoxia were recorded using the following protocol: Mice were anesthetized, placed in the supine position on a heated platform (Water-jacketed pad heated with a Gaymar heating pump) and an incision over the right common carotid artery and right jugular vein was made isolating the right jugular taking care not to damage the carotid artery and/or the Vagus nerve. […]
Right ventricular systolic pressure analysis was conducted using LabChart Pro software (ADInstruments) at approximately 60 second intervals of pressure tracing (following a 2 minute period of recording to allow for pressure stabilization). The parameters analyzed were RV diastolic and systolic pressures, heart rate and animal temperature. […]

[4] = system: bleomycin-induced pulmonary fibrosis in C57BL/6 male mice
Method: Bleomycin-induced lung injury was used to model pulmonary fibrosis in 10-week-old C57BL/6 male mice. Bleomycin sulfate was administered via a single oropharyngeal dose (3.2 U/kg (2.0 mg/kg) in a 2.0 ml/kg volume). Untreated control mice received a transoral instillation of sterile 0.9% saline (2.0 ml/kg). Bosentan, an orally active non-selective antagonist of endothelin receptor-A and -B, was used as a positive control for treatment, while vehicle and an irrelevant isotype matched antibody served as negative controls. Mice were allocated to treatment or control groups with dosing regimens as outlined in Table 11.
Each cage was randomly assigned to a therapeutic treatment group so all mice in the cage received the same treatment. Initial average body weight for each treatment group was similar. Daily body weights were recorded throughout the study. Group body weight average and percent change were analyzed and graphed.
Administration of bleomycin or saline was performed while animals were under anesthesia (isoflurane at a 3.5% to 2-liters/min oxygen flow rate). Sedated mice were placed on a 60-degree tilt board, head up with an elastic band around the incisors. A small cotton tip was used to roll tongue out of the mouth then forceps were used to hold tongue and to open the jaw. During a heavy inhalation, fluid was pipetted into the mouth. Tongue and jaw positions were maintained while mouse remained on the tilt board. Approximately 20 seconds elapsed after pipetting for fluid to disappear and “wheezing” to stop. After treatment instillation, mice were group-housed by treatment conditions (5 animals per cage) in disposable cages for 7 days because of excreted biohazard and then returned to home cages. Disposable cages differed from home cages only by use of a cage top bottle for water instead of use of Thoren rack watering system. All mice were housed in colony on 12 hr (7 am-7 pm) light-dark cycle.
Bosentan was administered by oral gavage twice daily (9:30 am and 6:30 pm) during the week. The initial pretreatment dose and weekend day doses were administered as a single combined BID. As outlined in Table 11, Bosentan dosing continued daily through day 20 of study while antibodies and vehicle were subcutaneously dosed every 3 days through day 18.
Pulmonary function was gauged by measuring arterial oxygen saturation using the Starr Life Sciences, MouseOx small animal vital signs monitor. Measurements were taken around the neck region following hair removal on Days 14 and 17. The MouseOx can monitor the cardio-pulmonary health and degree of lung injury by measuring the level of oxygen carried to the tissues on hemoglobin molecules in red blood cells. A throat collar sensor was used to measure arterial oxygen saturation via the carotid artery in conscious mice. Mice were lightly restrained by hand to confine subject to the cage top food hopper and to reduce movement. […] Once a continuous 15 second block is recorded, the software calculates the average of the above parameters. […] An average arterial oxygen saturation for each treatment group was calculated and analyzed using one-way ANOVA with Bonferroni post-test comparisons of all treatment groups.
On Day 21, mice were administered a terminal dose of Ketamine/Xylazine (120 mg/kg/5 mg/kg IP, respectively). […] Wet and dry lung weights and wet wt. to dry wt. ratios were calculated for each treatment group. […]

## COc1ccccc1Oc1c(NS(=O)(=O)c2ccc(C(C)(C)C)cc2)nc(-c2ncccn2)nc1OCCO [Bosentan, reference compound]
[1]
  arterial blood oxygen saturation (in words): tended to restore arterial blood oxygen saturation closer to baseline levels
[2]
  Pulmonary Artery Cross-Sectional Area (PA CSA): significantly reverse the reduction in pulmonary artery cross-sectional area
  Right Ventricular Free Wall (RVFW) Thickening: significantly reverse right ventricular free wall (RVFW) thickening
[2]; listed as bosentan
  Pulmonary Artery Cross-Sectional Area (PA CSA): lessened lumen diameter loss
  Right Ventricular Free Wall (RVFW) Thickening: attenuated right ventricular free wall (RVFW) thickening
[2]; FIG. 5
  Distal Pulmonary Arteriole Wall Thickening: significantly reverses distal pulmonary arteriole wall thickening
[2]; FIG. 9
  Right Ventricular Cardiac Output (RV CO): Greater preservation of RV CO in bosentan-treated vs antibody-treated animals
[2]; FIG. 10
  Right Ventricular Systolic Pressure (RVSP): tends to reduce the RVSP
[3]; H4H6327P2 25 mg/kg SC every 3 days, Bosentan 300 mg/kg PO SID, FIG. 1
  Pulmonary Artery Cross-Sectional Area (PA CSA): showed a similar yet reduced capacity to maintain basal PA CSA; also recorded: significantly lessen the reduction in PA CSA
[3]; preventive dosing, FIG. 2
  Right Ventricular Cardiac Output (RV CO): showed a greater preservation of RV CO compared to the vehicle-treated group
[3]; preventive dosing, FIG. 4
  Right Ventricular Free Wall Thickness, systole (RVFW,s): tends to reduce (not significant) the thickening of the RVFW
[4]; 21 days post bleomycin, vs isotype control
  lung wet weights (in words): showed statistically significant reductions in wet lung weights
[4]; bleomycin 3.2 U/kg, 21 days post bleomycin
  Wet Weight Rt. Lung (mg) AVG ± SEM: 117 ± 6 mg
[4]; bleomycin 3.2 U/kg, MouseOx throat collar sensor
  % Arterial Blood 02 Saturation AVG ± SEM: 93 ± 1%
[4]; bleomycin 3.2 U/kg, Sircol soluble collagen, Day 21
  Total Collagen Rt. Lung (ug) AVG ± SEM: 403 ± 38 µg
[4]; post bleomycin exposure
  collagen accumulation in the lung (in words): reduced collagen accumulation in the lung
